From ChEMBL document CHEMBL1201862, “PubChem BioAssay data set” (2004)
The source made the active and inactive calls.

Legend:
[1] = target: Sphingosine 1-phosphate receptor 1 (Homo sapiens, UniProt P21453); format: functional;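 also: Tango beta-arrestin reporter U2OS cells stimulated with S1P near its EC80; inhibitor potency meaning antagonism of receptor activation by the natural agonist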
cells = format: functional
[2] = Fluorescence-based cell-based high throughput dose response assay for inhibitors of the interaction of nucleotide-binding oligomerization domain containing 2 (NOD2) and the receptor-interacting serine-threonine kinase 2 (RIPK2).; format: functional; details: Homo sapiens
[3] = THP-1 cell cytotoxicity, dose response, cytotoxicity control for non-replicating M. tuberculosis project (AID 489025); format: functional
Coagulation factor XII = target: T1, Coagulation factor XII (Homo sapiens, UniProt P00748); format: functional;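 also: activated factor XIIa alpha cleaving a fluorogenic AMC peptide substrate; inhibitor potency from loss of enzyme activity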
T1 sequence (P00748 whole entry): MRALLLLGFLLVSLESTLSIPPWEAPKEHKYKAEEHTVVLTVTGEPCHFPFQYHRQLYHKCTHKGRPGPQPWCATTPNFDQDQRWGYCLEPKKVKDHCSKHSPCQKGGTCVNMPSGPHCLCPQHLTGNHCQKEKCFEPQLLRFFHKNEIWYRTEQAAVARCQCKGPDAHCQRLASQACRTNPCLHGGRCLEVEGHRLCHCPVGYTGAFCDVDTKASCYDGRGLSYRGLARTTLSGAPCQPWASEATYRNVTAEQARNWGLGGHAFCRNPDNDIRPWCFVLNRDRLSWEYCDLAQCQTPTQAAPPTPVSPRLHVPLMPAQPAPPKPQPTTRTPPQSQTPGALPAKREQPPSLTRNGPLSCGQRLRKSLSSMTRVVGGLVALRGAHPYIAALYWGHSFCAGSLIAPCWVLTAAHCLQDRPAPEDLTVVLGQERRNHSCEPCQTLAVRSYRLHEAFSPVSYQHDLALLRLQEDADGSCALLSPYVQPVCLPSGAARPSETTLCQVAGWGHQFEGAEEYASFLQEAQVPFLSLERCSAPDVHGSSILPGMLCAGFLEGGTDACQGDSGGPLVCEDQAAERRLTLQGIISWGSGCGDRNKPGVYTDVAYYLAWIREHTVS

[4] = NIH3T3 cell viability loss – ATP luminescence, mouse fibroblasts, counter-screen, dose response (AID 2010); format: functional, cell-based;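 also: cells exposed to compound for about 90 hours before reading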
Streptokinase A = target: T2, Streptokinase A (Streptococcus pyogenes serotype M1, UniProt P10520); test: viability-normalized secreted streptokinase activity reduction – plasminogen activation absorbance, OD405, dose response (AID 1914); format: functional, Streptococcus pyogenes M1 GAS;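 also: secreted streptokinase activity via plasminogen activation per viability signal from cell pellet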
T2 sequence (P10520 whole entry): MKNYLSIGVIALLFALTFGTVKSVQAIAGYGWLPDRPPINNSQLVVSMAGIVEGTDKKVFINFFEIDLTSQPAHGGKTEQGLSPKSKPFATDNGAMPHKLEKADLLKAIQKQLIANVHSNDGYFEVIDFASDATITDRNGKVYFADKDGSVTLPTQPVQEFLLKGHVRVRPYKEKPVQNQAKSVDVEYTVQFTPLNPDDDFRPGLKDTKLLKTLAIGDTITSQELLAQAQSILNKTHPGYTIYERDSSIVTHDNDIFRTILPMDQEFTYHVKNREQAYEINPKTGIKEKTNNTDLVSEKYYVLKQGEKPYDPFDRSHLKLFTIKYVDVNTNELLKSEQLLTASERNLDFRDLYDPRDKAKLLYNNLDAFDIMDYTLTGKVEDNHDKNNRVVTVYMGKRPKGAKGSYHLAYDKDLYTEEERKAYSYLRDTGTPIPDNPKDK

Streptococcus = test: GAS UMAA2166 growth inhibition – luminescence, BacTiterGlo, counter-screen for streptokinase expression inhibitor project, dose response (AID 1915); format: functional, organism-based;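 also: potency for reduction of bacterial viability or growth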
[5] = viability of PTEN-deleted HCT116 cells – cell-based, HCT116 PTEN knockout, dose response (AID 1047); format: functional;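 also: HCT116 colon tumor cells with PTEN knocked out; cells exposed to compound for 60 hours before readout; potency for loss of cell viability measured by luminescence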
[6] = target: Female germline-specific tumor suppressor gld-1 (Caenorhabditis elegans, UniProt Q17339); test: blockers of GLD-1/TGE RNA complex formation – biochemical, fluorescence polarization, C. elegans, dose response (AID 2802);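 also: fluorescence polarization of labeled TGE RNA bound by purified gld-1 protein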
[7] = blockers of HIV-1 envelope-mediated cell-cell fusion – cherry-pick, dose response (AID 652057); format: functional, cell-based
Activated CDC42 kinase 1 = Activated CDC42 kinase 1 (Homo sapiens, UniProt Q07912); test: Navigating the Kinome. Panel member name: ACK1; format: functional
[8] = target: G protein-coupled receptor kinase 5 (Homo sapiens, UniProt P34947); test: Navigating the Kinome. Panel member name: GPRK5; format: functional
[9] = target: Tyrosine-protein kinase SYK (Homo sapiens, UniProt P43405); format: functional
[10] = target: Mitogen-activated protein kinase 1 (Homo sapiens, UniProt P28482); format: functional
Sequence of Mitogen-activated protein kinase 1 (P28482 whole entry): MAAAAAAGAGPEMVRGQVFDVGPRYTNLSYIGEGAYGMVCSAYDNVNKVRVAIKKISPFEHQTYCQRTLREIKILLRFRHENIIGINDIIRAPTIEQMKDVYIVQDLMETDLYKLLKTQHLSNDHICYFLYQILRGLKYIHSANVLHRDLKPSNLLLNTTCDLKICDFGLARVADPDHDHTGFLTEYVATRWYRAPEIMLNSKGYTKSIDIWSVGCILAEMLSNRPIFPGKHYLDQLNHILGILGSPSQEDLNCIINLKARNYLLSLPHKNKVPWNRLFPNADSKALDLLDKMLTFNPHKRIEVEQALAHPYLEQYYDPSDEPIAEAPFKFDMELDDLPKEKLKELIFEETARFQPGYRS

[11] = target: Proto-oncogene tyrosine-protein kinase receptor Ret (Homo sapiens, UniProt P07949); format: functional;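 also: measured within a kinome-wide profiling panel, RET as the panel member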
[12] = target: Serine/threonine-protein kinase 17A (Homo sapiens, UniProt Q9UEE5); format: functional
[13] = target: Leukocyte tyrosine kinase receptor (Homo sapiens, UniProt P29376); test: Navigating the Kinome. Panel member name: LTK; format: functional
[14] = target: Mitogen-activated protein kinase 8 (Homo sapiens, UniProt P45983); format: functional;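 also: value comes from one member of a kinome-wide kinase profiling panel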
[15] = target: Interleukin-1 receptor-associated kinase 4 (Homo sapiens, UniProt Q9NWZ3); format: functional
[16] = target: Mitogen-activated protein kinase 9 (Homo sapiens, UniProt P45984); format: functional;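 also: value from a kinome panel profiling assay, MAPK9 panel entry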
[17] = target: ALK tyrosine kinase receptor (Homo sapiens, UniProt Q9UM73); format: functional;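 also: ALK tested as one member of a kinase panel screen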
Sequence of ALK tyrosine kinase receptor (Q9UM73 whole entry): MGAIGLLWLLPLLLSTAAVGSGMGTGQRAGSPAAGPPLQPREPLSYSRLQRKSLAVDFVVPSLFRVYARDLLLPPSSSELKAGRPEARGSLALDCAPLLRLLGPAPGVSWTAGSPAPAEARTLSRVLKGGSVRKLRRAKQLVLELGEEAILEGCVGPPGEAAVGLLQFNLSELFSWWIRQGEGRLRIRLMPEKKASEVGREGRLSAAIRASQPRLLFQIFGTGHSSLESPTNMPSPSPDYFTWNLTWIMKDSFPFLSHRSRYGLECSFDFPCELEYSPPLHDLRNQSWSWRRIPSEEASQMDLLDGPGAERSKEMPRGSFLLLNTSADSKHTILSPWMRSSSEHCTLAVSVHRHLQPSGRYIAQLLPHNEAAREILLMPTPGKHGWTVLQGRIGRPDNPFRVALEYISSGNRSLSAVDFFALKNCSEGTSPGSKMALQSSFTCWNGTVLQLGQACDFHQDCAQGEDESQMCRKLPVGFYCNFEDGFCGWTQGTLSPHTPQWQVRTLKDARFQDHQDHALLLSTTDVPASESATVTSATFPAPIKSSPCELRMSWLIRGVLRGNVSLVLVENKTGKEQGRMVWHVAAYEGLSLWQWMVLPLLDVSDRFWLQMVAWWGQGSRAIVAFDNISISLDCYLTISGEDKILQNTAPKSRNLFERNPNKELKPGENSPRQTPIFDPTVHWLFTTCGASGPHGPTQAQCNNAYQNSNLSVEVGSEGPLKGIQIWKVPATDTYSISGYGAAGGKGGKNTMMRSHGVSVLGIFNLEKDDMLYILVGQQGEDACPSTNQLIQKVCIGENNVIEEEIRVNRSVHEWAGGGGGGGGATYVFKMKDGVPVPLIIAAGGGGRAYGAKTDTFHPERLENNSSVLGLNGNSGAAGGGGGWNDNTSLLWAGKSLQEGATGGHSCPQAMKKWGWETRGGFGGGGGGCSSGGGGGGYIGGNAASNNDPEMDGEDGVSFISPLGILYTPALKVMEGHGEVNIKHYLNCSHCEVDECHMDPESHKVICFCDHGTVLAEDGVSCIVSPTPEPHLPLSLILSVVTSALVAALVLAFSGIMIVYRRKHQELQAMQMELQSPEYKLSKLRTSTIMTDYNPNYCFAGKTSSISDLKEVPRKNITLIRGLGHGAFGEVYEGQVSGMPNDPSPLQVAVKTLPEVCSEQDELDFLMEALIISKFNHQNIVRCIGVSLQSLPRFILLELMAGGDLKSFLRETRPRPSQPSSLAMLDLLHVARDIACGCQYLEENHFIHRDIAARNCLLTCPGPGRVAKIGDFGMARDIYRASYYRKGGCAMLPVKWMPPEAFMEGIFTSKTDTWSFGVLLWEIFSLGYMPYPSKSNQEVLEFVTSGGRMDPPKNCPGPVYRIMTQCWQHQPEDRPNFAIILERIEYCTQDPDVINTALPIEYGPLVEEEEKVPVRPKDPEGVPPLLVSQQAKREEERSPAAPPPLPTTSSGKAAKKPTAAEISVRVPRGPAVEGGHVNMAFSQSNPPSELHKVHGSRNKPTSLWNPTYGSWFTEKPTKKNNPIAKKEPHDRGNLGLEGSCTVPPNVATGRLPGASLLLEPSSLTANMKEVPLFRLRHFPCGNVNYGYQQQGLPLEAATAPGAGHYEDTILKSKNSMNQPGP

[18] = target: Dual specificity tyrosine-phosphorylation-regulated kinase 3 (Homo sapiens, UniProt O43781); format: functional;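 also: measured as one member of a broad kinase panel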
[19] = target: Kappa-type opioid receptor (Homo sapiens, UniProt P41145); format: functional
Focal adhesion kinase 1 = Focal adhesion kinase 1 (Homo sapiens, UniProt Q05397); format: functional;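 also: measured as one member of a kinome panel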
[20] = target: Tyrosine-protein kinase Fer (Homo sapiens, UniProt P16591); format: functional;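 also: FER tested as one member of a kinome panel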
Sequence of Tyrosine-protein kinase Fer (P16591 whole entry): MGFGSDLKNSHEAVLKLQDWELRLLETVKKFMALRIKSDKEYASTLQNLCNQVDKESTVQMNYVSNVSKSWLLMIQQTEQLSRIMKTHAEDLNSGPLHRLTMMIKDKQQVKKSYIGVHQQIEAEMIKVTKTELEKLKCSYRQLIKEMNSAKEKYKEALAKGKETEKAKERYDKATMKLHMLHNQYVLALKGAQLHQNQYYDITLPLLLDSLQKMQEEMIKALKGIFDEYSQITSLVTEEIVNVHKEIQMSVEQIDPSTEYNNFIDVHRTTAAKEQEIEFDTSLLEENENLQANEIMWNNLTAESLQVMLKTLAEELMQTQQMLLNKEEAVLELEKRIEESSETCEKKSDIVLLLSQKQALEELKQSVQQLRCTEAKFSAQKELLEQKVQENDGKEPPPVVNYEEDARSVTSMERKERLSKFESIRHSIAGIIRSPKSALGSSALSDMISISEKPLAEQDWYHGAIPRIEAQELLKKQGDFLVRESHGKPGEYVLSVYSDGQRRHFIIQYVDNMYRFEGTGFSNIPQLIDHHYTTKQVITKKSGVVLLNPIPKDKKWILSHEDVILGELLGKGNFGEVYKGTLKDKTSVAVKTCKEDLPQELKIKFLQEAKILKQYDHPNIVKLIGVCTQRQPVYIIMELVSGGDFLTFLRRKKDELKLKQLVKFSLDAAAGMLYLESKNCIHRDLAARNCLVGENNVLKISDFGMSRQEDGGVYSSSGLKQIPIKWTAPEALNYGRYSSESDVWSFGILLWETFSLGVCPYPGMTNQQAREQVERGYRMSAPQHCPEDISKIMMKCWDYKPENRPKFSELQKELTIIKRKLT

[21] = target: Serine/threonine-protein kinase TBK1 (Homo sapiens, UniProt Q9UHD2); test: Navigating the Kinome. Panel member name: TBK1; format: functional
Sequence of Serine/threonine-protein kinase TBK1 (Q9UHD2 whole entry): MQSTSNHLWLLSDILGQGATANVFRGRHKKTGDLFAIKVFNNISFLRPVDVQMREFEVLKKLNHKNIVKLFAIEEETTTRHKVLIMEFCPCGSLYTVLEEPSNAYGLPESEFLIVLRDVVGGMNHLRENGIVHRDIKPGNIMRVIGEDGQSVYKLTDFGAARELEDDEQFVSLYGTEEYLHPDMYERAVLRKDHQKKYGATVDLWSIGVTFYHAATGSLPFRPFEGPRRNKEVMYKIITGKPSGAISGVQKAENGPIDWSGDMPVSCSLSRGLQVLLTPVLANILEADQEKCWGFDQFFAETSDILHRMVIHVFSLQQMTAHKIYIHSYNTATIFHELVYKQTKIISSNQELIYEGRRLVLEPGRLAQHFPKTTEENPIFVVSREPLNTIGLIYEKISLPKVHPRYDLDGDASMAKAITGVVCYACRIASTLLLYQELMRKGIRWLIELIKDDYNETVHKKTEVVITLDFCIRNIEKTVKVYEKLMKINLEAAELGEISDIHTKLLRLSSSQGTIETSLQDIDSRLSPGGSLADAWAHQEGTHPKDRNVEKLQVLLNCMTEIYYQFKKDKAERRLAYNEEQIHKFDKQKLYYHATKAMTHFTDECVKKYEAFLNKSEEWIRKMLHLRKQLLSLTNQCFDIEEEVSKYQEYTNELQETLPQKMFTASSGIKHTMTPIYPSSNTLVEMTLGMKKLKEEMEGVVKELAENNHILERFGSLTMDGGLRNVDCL

[22] = target: Platelet-derived growth factor receptor beta (Homo sapiens, UniProt P09619); format: functional;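 also: value comes from a kinome panel, with PDGFRB tested as one panel member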
Sequence of Platelet-derived growth factor receptor beta (P09619 whole entry): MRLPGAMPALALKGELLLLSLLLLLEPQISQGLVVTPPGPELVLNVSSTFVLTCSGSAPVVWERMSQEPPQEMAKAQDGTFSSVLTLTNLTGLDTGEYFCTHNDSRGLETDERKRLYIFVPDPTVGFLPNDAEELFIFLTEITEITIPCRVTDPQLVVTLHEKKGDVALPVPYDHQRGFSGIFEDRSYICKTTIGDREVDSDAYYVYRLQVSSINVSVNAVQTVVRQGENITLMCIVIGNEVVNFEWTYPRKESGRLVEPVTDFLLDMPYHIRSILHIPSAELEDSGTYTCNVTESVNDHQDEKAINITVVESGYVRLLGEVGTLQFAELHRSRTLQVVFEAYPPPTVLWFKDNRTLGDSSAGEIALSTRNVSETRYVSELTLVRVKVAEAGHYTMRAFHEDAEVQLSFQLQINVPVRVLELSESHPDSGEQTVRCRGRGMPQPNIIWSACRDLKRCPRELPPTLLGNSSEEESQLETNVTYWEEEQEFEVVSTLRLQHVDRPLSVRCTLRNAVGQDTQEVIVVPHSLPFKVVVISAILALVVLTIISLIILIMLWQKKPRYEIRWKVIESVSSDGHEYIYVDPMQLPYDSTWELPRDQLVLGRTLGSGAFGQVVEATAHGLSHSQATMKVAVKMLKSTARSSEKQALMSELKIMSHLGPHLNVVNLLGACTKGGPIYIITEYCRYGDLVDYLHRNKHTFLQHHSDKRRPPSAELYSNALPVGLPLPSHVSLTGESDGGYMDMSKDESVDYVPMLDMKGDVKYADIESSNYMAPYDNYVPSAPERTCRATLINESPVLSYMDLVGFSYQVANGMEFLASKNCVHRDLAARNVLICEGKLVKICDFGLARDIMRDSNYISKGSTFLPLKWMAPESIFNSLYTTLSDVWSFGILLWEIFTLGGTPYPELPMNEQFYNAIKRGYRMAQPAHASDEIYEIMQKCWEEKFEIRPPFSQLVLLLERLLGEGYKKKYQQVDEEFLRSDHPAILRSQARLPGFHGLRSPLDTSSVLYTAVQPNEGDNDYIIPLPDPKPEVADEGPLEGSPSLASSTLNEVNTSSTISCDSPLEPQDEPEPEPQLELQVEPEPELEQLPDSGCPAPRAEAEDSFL

Sequence of Sphingosine 1-phosphate receptor 1 (P21453 whole entry): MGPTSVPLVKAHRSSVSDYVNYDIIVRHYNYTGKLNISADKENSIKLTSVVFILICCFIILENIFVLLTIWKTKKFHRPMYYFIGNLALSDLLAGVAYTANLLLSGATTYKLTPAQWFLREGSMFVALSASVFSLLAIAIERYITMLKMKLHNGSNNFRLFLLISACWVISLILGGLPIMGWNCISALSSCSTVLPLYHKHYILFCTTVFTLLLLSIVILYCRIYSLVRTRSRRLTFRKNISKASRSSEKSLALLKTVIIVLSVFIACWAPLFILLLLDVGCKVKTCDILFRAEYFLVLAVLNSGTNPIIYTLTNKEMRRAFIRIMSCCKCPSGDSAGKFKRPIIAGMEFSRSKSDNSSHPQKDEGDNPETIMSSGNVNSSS

COC(=O)CCS(=O)(=O)c1nc(-c2ccccc2)cc(C(F)(F)F)n1
IC50 [1]: 28.4 µM (not active) | IC50 (cells): 4.78 µM (active) | IC50 [2]: 3.08 µM (active) | CC50 [3]: 25.2 µM (active)

O=C(O)c1ccc(NC2=C(Cl)C(=O)c3ccccc3C2=O)cc1
IC50 (Coagulation factor XII): > 50 µM (inactive) | EC50 [4]: 4.97 µM (active)

O=C(O)c1ccc2c3c(ncnc13)-c1ccccc1C2=O
EC50 (Streptokinase A): 16 µM (active) | EC50 (Streptococcus): > 150 µM (not active) | EC50 [5]: 16.1 µM (active) | IC50 [6]: 3.51 µM (active)

CCOC(=O)c1c2c(n(Cc3ccccc3)c1C)C(=O)C(=O)c1ccccc1-2
AC50 [7]: 6.28 µM (active)

Cc1ccc2nccc(NC(=O)Nc3cccc(C(F)(F)F)n3)c2c1
Ki (Activated CDC42 kinase 1): > 3.98 µM (inactive) | Ki [8]: > 3.98 µM (inactive) | Ki [9]: > 1.58 µM (inactive) | Ki [10]: > 7.94 µM (inactive) | Ki [11]: > 2 µM (inactive) | Ki [12]: > 3.98 µM (inactive) | Ki [13]: > 3.16 µM (inactive) | Ki [14]: > 3.16 µM (inactive) | Ki [15]: > 10 µM (inactive) | Ki [16]: > 3.98 µM (inactive) | Ki [17]: > 3.98 µM (inactive) | Ki [18]: > 6.31 µM (inactive)

Cc1c(/N=C2\C=CC(=O)c3ccccc32)c(=O)n(-c2ccccc2)n1C
IC50 [19]: 12.1 µM (active)

COc1cc2c(cc1F)C(c1ccccc1Cl)=Nc1c(n[nH]c1C)N2 [RG-1530]
Ki (Focal adhesion kinase 1): 0.0126 µM (active) | Ki [20]: 0.126 µM (active) | Ki [21]: > 2.51 µM (inactive) | Ki [22]: 0.0501 µM (active)
